Results on 20 compounds are retold here after patent publication US20260182575A1, “MOLECULES HAVING PESTICIDAL UTILITY AND INTERMEDIATES AND PROCESSES RELATED THERETO” (CORTEVA AGRISCIENCE LLC, priority 2022, published 2026).

Common to all, as to type: in vivo
The subject of experiment [1] is Fall Armyworm (Spodoptera frugiperda, LAPHFR, FAW). Kind of experiment: Bioassay 7: fall armyworm, artificial diet, 96 well plate. The method, then: (§1) The test solutions were tested against CEW, FAW, BAW, and SBL using the following procedure: an artificial lepidopteran diet (Multispecies Lepidopteran Diet, Southland Products) was distributed in 96 well plate. Twenty μL of test solution was pipetted onto a cell in the bioassay plate. […] Each treatment was replicated 5 times for each species. Approximately five first instar CEW, FAW, BAW, or SBL larva were placed on top of the diet in each cell and was contained with a clear perforated adhesive lid. Test trays were held at approximately 25° C. and ambient relative humidity prior to grading. After five days, the number of cells where all the larvae were dead were recorded as 100% and averaged across all replicates; then the percent control was measured using Abbott's correction formula (W. S. Abbott, J. Econ. Entomol. 18 (1925), pp. 265-267) as follows:
(§2) where X=No. of live larvae on solvent check and Y=No. of live larvae on treated diet. In Table 7 the “Expected % Control” was calculated using the method described in Colby S. R., Weeds, 1967, 15, 20-22. Bioassay 8: Western Corn Rootworm (Diabrotica virgifera virgifera, DIABVI, “WCR”)

Experiment [2] has as its system Soybean Looper (Chrysodeixis includens, PSEPIN, SBL). The experiment can be described thus: Bioassay 7: soybean looper, artificial diet, 96 well plate. As to conditions: CL. As to the method: as §1, §2
Experiment [3] concerns Corn Earworm (Helicoverpa zea, HELIZE, CEW). The experiment can be described thus: Bioassay 7: corn earworm, artificial diet, 96 well plate. The method, then: as §1, §2
Experiment [4] has as its system Beet Armyworm (Spodoptera exigua, LAPHEG, BAW). The experiment can be described thus: Bioassay 7: beet armyworm, artificial diet, 96 well plate. As to the method: as §1, §2
The subject of experiment [5] is Green Peach Aphid (Myzus persicae, MYZUPE, GPA). The experiment can be described thus: Bioassay 1: green peach aphid, cabbage seedling foliar spray. The note with it: AI alone at the rate of Wt Ratio F1:AI 1:10256 (F1 0.04), 3 days. As to the method: Bioassay 1: Green Peach Aphid (Myzus persicae, MYZUPE, “GPA”).
Stock solutions of F1 and various active ingredients were prepared initially at a concentration of 4 milligrams per milliliter (mg/mL) for F1 and 0.1 mg/mL for the active ingredients, respectively, using a 1:1 mixture of acetone:methanol as a diluent. Stock solutions were prepared with F1 as well as for each of the active ingredients individually. Test solutions were prepared from the stock solutions. Test solutions were prepared containing F1, the individual active ingredients, and mixtures of F1 with each of the active ingredients. The test solutions for F1 and the individual active ingredients were prepared by adding 750 microliters (μL) of stock solution to a 25 mL glass vial, then adding 750 μL of 1:1 acetone:methanol solvent, followed by the addition of 13.5 mL water with 0.025% Tween® 20 to create a 0.0005% (weight/volume (w/v)) solution. The test solutions containing mixtures of F1, and the individual active ingredients were prepared by adding 750 μL of the active ingredient stock solution to a 25 mL glass vial, followed by 750 μL of the F1 stock solution, then by the addition of 13.5 mL water with 0.025% Tween® 20 to create a test solution containing 0.0005% (w/v) F1 and 0.0005% (w/v) of the active ingredient. Each test solution was serially diluted to create desired doses of test solutions (0.0005% (w/v), 0.000125% (w/v), 0.00003125% (w/v), 0.0000078% (w/v), 0.00000195% (w/v), and 0.0000005% (w/v)). In test solutions containing mixtures of F1 and the active ingredients, the active ingredients were diluted as described above, but the concentration of F1 was held constant (0.04% (w/v)).
The test solutions were tested against GPA using the following procedure: cabbage seedlings, grown in 3-inch pots with 2-3 small (3-5 centimeter (cm)) true leaves, were used as test substrate. The seedlings were infested with 20-50 GPA (wingless adult and nymph stages) one day prior to chemical application. Four pots with individual seedlings were used for each treatment. A hand-held aspirator-type sprayer was used for spraying a solution to both sides of […] leaves until runoff. Reference plants (solvent check) were sprayed with the diluent only (0.025% Tween® 20 and 10% acetone:methanol (1:1) in water). Treated plants were held in a holding room for three days at approximately 25° C. and ambient relative humidity (RH about 20% to about 45%) prior to grading. Evaluation was conducted by counting the number of live aphids per plant under a microscope three days after treatment. Percent control was measured using Abbott's correction formula (W. S. Abbott, J. Econ. Entomol. 18 (1925), pp. 265-267) as follows:
where X=No. of live aphids on solvent check plants and Y=No. of live aphids on treated plants. In Table B1 the “Expected % Control” was calculated using the method described in Colby S. R., Weeds, 1967, 15, 20-22. Bioassay 2: Sweet Potato Whitefly (Bemisia tabaci, BEMITA, “SPW”).

Experiment [6] concerns Corn Earworm (Helicoverpa zea, HELIZE, CEW). Kind of experiment: Bioassay 4: corn earworm, artificial diet, 128-cell tray. The note with it: AI alone. The method, then:
(§3) Stock solutions were prepared with F1 as well as for each of the active ingredients individually. Test solutions were prepared from the stock solutions. Test solutions were prepared containing F1, the individual active ingredients, and mixtures of F1 with each of the active ingredients. The test solution for F1 was prepared by adding 500 μL of the stock solution to a 25 mL glass vial, then adding 500 μL of a 9:1 mixture of acetone:water. The individual active ingredients were prepared by adding 500 μL of stock solution to a 25 mL glass vial, then adding 500 μL of a 9:1 mixture of acetone:water. The test solutions containing mixtures of F1, and the individual active ingredients were prepared by adding 500 μL of the active ingredient stock solution to a 25 mL glass vial, followed by 500 μL of the F1 stock solution, creating a test solution containing 0.04% (w/v) of F1 and 0.4% (w/v) of the active ingredient. Each test solution was serially diluted to create desired doses of test solutions (F1 at 0.04% (w/v), 0.004% (w/v), 0.0004% (w/v), 0.00004% (w/v), 0.000004% (w/v), and 0.0000004% (w/v) and active ingredients at 0.4% (w/v), 0.04% (w/v), 0.004% (w/v), 0.0004% (w/v), 0.00004% (w/v), and 0.000004% (w/v)).
(§4) The test solutions were tested against CEW, FAW, and SBL using the following procedure: an artificial lepidopteran diet (Multispecies Lepidopteran Diet, Southland Products) was distributed in 128-cell bioassay trays (Frontier Agricultural Sciences™). 50 μL of test solution was pipetted into a cell in the bioassay tray. (The test solution doses of 0.04% (w/v), 0.004% (w/v), 0.0004% (w/v), 0.00004% (w/v), 0.000004% (w/v), and 0.0000004% (w/v) translated to concentrations of 5, 0.5, 0.05, 0.005, 0.0005, and 0.00005 μg/cm^2 on the diet, respectively.) A reference treatment (solvent check) was treated with the diluent only. Each treatment was replicated 8 times for each species. A 2nd instar CEW, FAW, or SBL larva was placed on top of the diet in each cell and was contained with a clear perforated adhesive lid. Test trays were held at approximately 26° C. and ambient relative humidity (RH) prior to grading.
(§5) After 5 days, the number of live larvae were recorded from each cell and percent control was measured using Abbott's correction formula (W. S. Abbott, J. Econ. Entomol. 18 (1925), pp. 265-267) as follows:
(§6) where X=No. of live larvae on solvent check and Y=No. of live larvae on treated diet. In Table B4 the “Expected % Control” was calculated using the method described in Colby S. R., Weeds, 1967, 15, 20-22. Bioassay 5: Neotropical Brown Stink Bug (Euschistus heros, EUSCHE, “BSB”).

For experiment [7], the system named is Fall Armyworm (Spodoptera frugiperda, LAPHFR, FAW). The experiment can be described thus: Bioassay 4: fall armyworm, artificial diet, 128-cell tray. As to conditions: AI alone, 0.000004 wt %. As to the method:
as §3, §4, §5, §6

The test system of experiment [8] is Soybean Looper (Chrysodeixis includens, PSEPIN, SBL). Kind of experiment: Bioassay 4: soybean looper, artificial diet, 128-cell tray. As to conditions: AI alone, 0.000004 wt %. As to the method: as §3, §4, §5, §6

For `CN(C(=O)c1ccccc1)c1cccc(C(=O)Nc2c(Br)cc(C(F)(C(F)(F)F)C(F)(F)F)cc2C(F)(F)F)c1F` [Broflanilide], the “Average % Control AI” value in experiment [1] (AI alone at 0.004 wt %) was 0.0%.

Take `[Cu+2].[OH-].[OH-]` [Copper Hydroxide]: the “Average % Control AI” value in experiment [2] (AI alone at 0.4 wt %) stood at 0.0%.

`CCNc1nc(CC)c(C(=O)NC(C#N)c2cccs2)s1` (stereo not shown) [Ethaboxam]: the entries for the “Average % Control AI” value in experiment [3] (AI alone at 0.4 wt %), in experiment [1] (AI alone at 0.4 wt %) and in experiment [2] (AI alone at 0.4 wt %) were 12.5%, 0.0% and 0.0%, respectively.

On to `COc1ccc(Cl)c(S(=O)(=O)NC(=O)c2cn3cc(C(F)(F)F)cc(Cl)c3n2)c1` [Fluazaindolizine], for which the “Average % Control AI” value in experiment [3] (AI alone at 0.4 wt %), in experiment [1] (AI alone at 0.4 wt %) and in experiment [2] (AI alone at 0.4 wt %) was 0.0% in each case.

In the case of `O=S(=O)(CCC(F)=C(F)F)c1ncc(Cl)s1` [Fluensulfone], the “Average % Control AI” value was 0.0% in experiment [3] (AI alone at 0.4 wt %), 0.0% in experiment [1] (AI alone at 0.4 wt %), 0.0% in experiment [4] (AI alone at 0.4 wt %) and 12.5% in experiment [2] (AI alone at 0.4 wt %).

For the compound `O=C(NCCc1ncc(C(F)(F)F)cc1Cl)c1ccccc1C(F)(F)F` [Fluopyram], the “Average % Control AI” value in experiment [4] (AI alone at 0.4 wt %) was found to be 0.0%.

As for `Cn1cc(C(=O)Nc2ccccc2-c2cc(F)c(F)c(F)c2)c(C(F)F)n1` [Fluxapyroxad], the “Average % Control AI” value in experiment [4] (AI alone at 0.4 wt %) stood at 0.0%.

Consider `O=[N+]([O-])/N=C1\NCCN1Cc1ccc(Cl)nc1` [Imidacloprid], for which the “Average % Control AI” value was determined as 40.5% in experiment [5]; 0.0% in experiment [6] (0.000004 wt %); 0.0% in experiment [6] (0.00004 wt %); 0.0% in experiment [7]; 12.5% in experiment [8].

Take `CC(C)C1CCC(Cc2ccc(Cl)cc2)C1(O)Cn1cncn1` (stereo not shown) [Ipconazole]: the “Average % Control AI” value in experiment [3] (AI alone at 0.4 wt %), in experiment [1] (AI alone at 0.4 wt %) and in experiment [4] (AI alone at 0.4 wt %) was 0.0% in each case.

On to `CC(C)c1ccc(Cl)cc1CN(C(=O)c1c(C(F)F)nn(C)c1F)C1CC1` [Isoflucypram], for which the “Average % Control AI” value in experiment [4] (AI alone at 0.4 wt %) and in experiment [2] (AI alone at 0.4 wt %) was 0.0% throughout.

Take `CC(O)(Cn1cncn1)c1ccc(Oc2ccc(Cl)cc2)cc1C(F)(F)F` (stereo not shown) [Mefentrifluconazole]: the “Average % Control AI” value in experiment [3] (AI alone at 0.4 wt %) and in experiment [4] (AI alone at 0.4 wt %) was 0.0% each time.

With `CC1(C)CCC(Cc2ccc(Cl)cc2)C1(O)Cn1cncn1` (stereo not shown) [Metconazole], the “Average % Control AI” value in experiment [4] (AI alone at 0.4 wt %) is reported as 0.0%.

With `CNC(=O)O/N=C(\SC)C(=O)N(C)C` [Oxamyl], the “Average % Control AI” value in experiment [3] (AI alone at 0.4 wt %), in experiment [1] (AI alone at 0.4 wt %), in experiment [4] (AI alone at 0.4 wt %) and in experiment [2] (AI alone at 0.4 wt %) was 0.0% each time.

`Cc1cc(C(F)(F)F)nn1CC(=O)N1CCC(c2nc(C3=NOC(c4c(F)cccc4F)C3)cs2)CC1` (stereo not shown) [Oxathiapiprolin]: the “Average % Control AI” value in experiment [3] (AI alone at 0.4 wt %) and in experiment [2] (AI alone at 0.4 wt %) was 0.0% each time.

`CO/C=C(/C(=O)OC)c1ccccc1COc1cccc(C(F)(F)F)n1` [Picoxystrobin]: the “Average % Control AI” value in experiment [3] (AI alone at 0.04 wt %), in experiment [4] (AI alone at 0.04 wt %) and in experiment [2] (AI alone at 0.04 wt %) was 0.0% throughout.

As for `CON(C(=O)c1cn(C)nc1C(F)F)C(C)Cc1c(Cl)cc(Cl)cc1Cl` (stereo not shown) [Pydiflumetofen], the “Average % Control AI” value in experiment [1] (AI alone at 0.4 wt %), in experiment [4] (AI alone at 0.4 wt %) and in experiment [2] (AI alone at 0.4 wt %) was 0.0% each time.

Consider `COC(=O)N(OC)c1ccccc1COc1ccn(-c2ccc(Cl)cc2)n1` [Pyraclostrobin], for which the “Average % Control AI” value in experiment [3] (AI alone at 0.04 wt %) and in experiment [2] (AI alone at 0.04 wt %) was 0.0% throughout.

For `Cc1cc(C)c(C2=C(OC(=O)CC(C)(C)C)C3(CCCC3)OC2=O)c(C)c1` [Spiromesifen], the “Average % Control AI” value in experiment [1] (AI alone at 0.4 wt %), in experiment [4] (AI alone at 0.4 wt %) and in experiment [2] (AI alone at 0.4 wt %) was 12.5% each time.

With Thiram, the “Average % Control AI” value in experiment [3] (AI alone at 0.4 wt %) and in experiment [2] (AI alone at 0.4 wt %) was 0.0% each time.

For the compound Trifloxystrobin, the “Average % Control AI” value in experiment [3] (AI alone at 0.4 wt %) came out at 0.0%; in experiment [1] (AI alone at 0.4 wt %) it was 16.6%; in experiment [4] (AI alone at 0.4 wt %), 20.0%.
